Laboratory results as given in paper PMC6941952, “A homogeneous bioluminescent immunoassay to probe cellular signaling pathway regulation” (Communications Biology, 2020).
Values joined by “and” are separate entries in the source; they are usually repeats but may differ in a detail not shown here. Equal entries are not always repeated.

System: total IκBα
Test: NanoBiT cell-based immunoassay, total IκBα in MCF-7 cells
Parameters: species or system human
Settings: for IkB degradation (% compared to no IKK16), Average / IkB degradation (% compared to no IKK16) / Non-Treated/Treated / Raw data / Subtract reagent background: TNF; for IkB degradation (% compared to no IKK16), Average: average of replicates; for IkB degradation (% compared to no IKK16) / Non-Treated/Treated / Raw data / Subtract reagent background: single replicates
Protocol: Prior to NanoBiT Cell-Based Immunoassay, 50,000 cells were seeded in 160 µl of complete growth media per well of a 96-well plate and incubated overnight. […] If necessary, the cell culture media were replaced with serum-free media after the cells were stably adherent on the plate and incubated overnight. To treat cells with activators or inhibitors, medium was changed to 30 µl of medium containing inhibitors. If activation of a specific pathway is needed, the cells were stimulated with 10 µl of medium containing activators. To lyse the cells, 10 µl of lysis buffer containing 0.1% digitonin diluted in 1X immunoassay buffer with protease and phosphatase inhibitors was added and the plates were mixed vigorously for 20 min. Then, 50 µl of an antibody mix containing two primary antibodies against the target protein and NanoBiT detecting antibodies (0.3 µl each per well), diluted in 1X immunoassay buffer was added to the lysates. The plates were incubated at 23 °C for 90 min, followed by the addition of 25 µl of Nano-Glo® reagent consisting of Nano-Glo® Luciferase Assay Substrate mixed with 1X immunoassay buffer. Luminescence was measured using a plate-reading luminometer.
Single dose or dose response inhibitor treatments were performed prior to activation of the pathways as follows. For IκBα, the cells were treated in 30 µl medium with IKK16 or MG132 for 60 min before the addition of 10 µl of DMEM containing appropriate concentration of TNFα. To measure phosphorylation of AKT or STAT3, the corresponding NanoBiT immunoassays were developed with MCF-7 or A431 cells, respectively, according the same scheme used to develop the IκBα assay using the primary antibodies for AKT and STAT3 described in the reagents section. […] Treatment with LY294002 was performed in 30 µl medium and cells were incubated for 60 min before the addition of 1 µM Insulin. To measure STAT3 phosphorylation, A431 cells were incubated overnight in DMEM medium without serum. […] After addition of the stimulators, the cells were incubated for additional times as follows. IκBα phosphorylation and degradation analyses required both time courses and single time points as described in figures. […] The NanoBiT immunoassay protocol was followed as described above.
All 96-well assay plates were read using a GloMax® 96 Microplate Luminometer from Promega. The instrument was set to 0.5 s integration time. In order to obtain net change of signal, the reagent background values (signal from the well containing all reagent except primary antibodies) were subtracted from the sample values. To plot and analyze the data, Microsoft Excel and GraphPad Prism® Software were used. IC50 values were determined by using a nonlinear regression fit to a sigmoidal dose response (variable slope).

[1] = MCF-7 cells, IKK16 0.000762939 uM
[2] = MCF-7 cells, IKK16 0.00305176 uM
[3] = MCF-7 cells, IKK16 0.0488281 uM

IC50 (MCF-7 cells, pretreated 1 h, then TNFα 50 ng per ml 30 min, read-out: IC50, inhibition of TNFα induced degradation of IκBα): 1440 nM
Structure (SMILES): O=C(c1ccc(Nc2nccc(-c3cc4ccccc4s3)n2)cc1)N1CCC(N2CCCC2)CC1 [IKK16]
Total IkB Raw data (Figure 3a and 3b): 147500 and 141100 and 148400 | Total IkB Subtract reagent background (Figure 3a and 3b): 129800 and 128900 and 122500 | Total IkB Average (Figure 3a and 3b, background subtracted): 127067 | TNFα-induced reduction of total IκBα protein (MCF-7 cells, 10 µM 1 h, TNFα 50 ng per ml 10 min): abolished | IkB degradation (% compared to no IKK16), Average [1]: 98.1% | IkB degradation (% compared to no IKK16) [1]: 101% and 97% and 93% | Non-Treated/Treated [1]: 4.060 and 4.672 and 4.565 and 4.365 | Raw data [1]: 21820 and 22100 and 21310 and 21710 | Subtract reagent background [1]: 13931 and 13141 and 13541 and 13651 | IkB degradation (% compared to no IKK16), Average [2]: 96.3% | IkB degradation (% compared to no IKK16) [2]: 103% and 93% and 95% and 94% | Non-Treated/Treated [2]: 4.119 and 4.303 and 4.479 and 4.413 | Raw data [2]: 21670 and 21900 and 22440 and 21970 | Subtract reagent background [2]: 13731 and 14271 and 13801 and 13501 | IkB degradation (% compared to no IKK16), Average (MCF-7 cells, IKK16 0.012207 uM): 97.0% | IkB degradation (% compared to no IKK16) (MCF-7 cells, IKK16 0.012207 uM): 101% and 95% and 99% and 94% | Non-Treated/Treated (MCF-7 cells, IKK16 0.012207 uM): 4.063 and 4.367 and 4.623 and 4.410 | Raw data (MCF-7 cells, IKK16 0.012207 uM): 21680 and 22090 and 22230 and 21540 | Subtract reagent background (MCF-7 cells, IKK16 0.012207 uM): 13921 and 14061 and 13371 and 13511 | IkB degradation (% compared to no IKK16), Average [3]: 102.5% | IkB degradation (% compared to no IKK16) [3]: 101% and 107% and 103% and 99% | Non-Treated/Treated [3]: 4.060 and 4.927 and 4.840 and 4.651 | Raw data [3]: 20980 and 22100 and 20630 and 20940 | Subtract reagent background [3]: 13931 and 12461 and 12771 and 12811 | IkB degradation (% compared to no IKK16), Average (MCF-7 cells, IKK16 0.195312 uM): 98.7% | IkB degradation (% compared to no IKK16) (MCF-7 cells, IKK16 0.195312 uM): 99% and 97% and 98% and 100% | Non-Treated/Treated (MCF-7 cells, IKK16 0.195312 uM): 3.986 and 4.488 and 4.616 and 4.698 | Raw data (MCF-7 cells, IKK16 0.195312 uM): 20850 and 22360 and 21850 and 21560 | Subtract reagent background (MCF-7 cells, IKK16 0.195312 uM): 14191 and 13681 and 13391 and 12681 | IkB degradation (% compared to no IKK16), Average (MCF-7 cells, IKK16 0.78125 uM): 84.0% | IkB degradation (% compared to no IKK16) (MCF-7 cells, IKK16 0.78125 uM): 86% and 82% and 85% | Non-Treated/Treated (MCF-7 cells, IKK16 0.78125 uM): 3.457 and 3.811 and 3.985 and 3.866 | Raw data (MCF-7 cells, IKK16 0.78125 uM): 23580 and 24530 and 24280 and 23680 | Subtract reagent background (MCF-7 cells, IKK16 0.78125 uM): 16361 and 16111 and 15511 and 15411 | IkB degradation (% compared to no IKK16), Average (MCF-7 cells, IKK16 3.125 uM): 40.0% | IkB degradation (% compared to no IKK16) (MCF-7 cells, IKK16 3.125 uM): 42% and 41% and 39% and 38% | Non-Treated/Treated (MCF-7 cells, IKK16 3.125 uM): 1.686 and 1.873 and 1.836 and 1.807 | Raw data (MCF-7 cells, IKK16 3.125 uM): 41140 and 41710 and 40950 and 41840 | Subtract reagent background (MCF-7 cells, IKK16 3.125 uM): 33541 and 32781 and 33671 and 32971
